≈ marks a conversion by molar mass, not a printed value. Like-named read-outs stand apart in the source and are kept apart here.
Assays:
[1] = test system: peptidomimetic-adapted E. coli isolates 2-7 and 7-3; assay: Growth rate in MHB supplemented with peptidomimetic 1, adapted isolates; type: cell-based, Escherichia coli
Experimental: (§1) To evaluate whether resistance altered the physiology of the isolates, we determined the growth rate of all forty isolates from lineage 2, 4, 5 and 7 as well as of E. coli ATCC 25922 in unsupplemented MHB media. Additionally, we determined the growth rate of the four isolates 2-7, 4-4, 5-6 and 7-3, in MHB supplemented with peptidomimetic 1 at ½×wild type MIC or 1×wild type MIC (i.e. 4 and 8 µg/mL). […] Optical density readings were obtained at 570 nm at 10–12 minute increments on cultures grown at 37°C over 24 hours (unsupplemented MHB) or 72 hours (supplemented MHB) using the automated Bioscreen C system (Labsystems, Helsinki, Finland). Growth rates were found using linear regression on ln(initial CFU/mL) vs. detection time (i.e. the time until a 0.5 unit increase in absorbance was reached) for inoculum sizes ranging from 10^2–10^7 CFU/mL [58]. Data were analysed in GraphPad Prism version 4.03 using One-Way ANOVA followed by Dunnett’s Test to correct for multiple testing. Control groups were E. coli ATCC 25922 (in the absence of peptidomimetic) or E. coli ATCC 25922/isolates grown in unsupplemented media (in the presence of peptidomimetic). Significance levels were in all tests set at p<0.05. All experiments were performed in duplicate on at least two independent days.

[2] = test system: peptidomimetic-adapted E. coli isolates; conditions: for Potentiation (ability of plasma to interact synergistically with peptidomimetic 1): MHB vs MHB +25% plasma; for MIC in MHB +25% plasma: MHB with 25% human blood plasma (sodium citrate)
Experimental: (§2) MIC was determined by using the micro-dilution method according to guidelines of the Clinical and Laboratory Standards Institute. Peptidomimetic 1 and erythromycin 1∶2 serial dilutions were prepared from 1024 µg/mL stock solutions to give a final range of 512-0.5 µg/mL in the wells. Ampicillin 1∶2 serial dilutions were prepared from a 256 µg/mL stock solution to give a final range of 128-0.13 µg/mL in the wells. Polymyxin B and gentamicin 1∶2 serial dilutions were prepared from a 64 µg/mL stock solution to give a final range of 32-0.03 µg/mL in the wells.
(§3) The population lineages were tested for their susceptibility towards peptidomimetic 1, polymyxin B, gentamicin and ampicillin. Single-culture isolates selected from these populations were additionally tested against peptidomimetic 1, polymyxin B, erythromycin and the five reference AMPs. To estimate the level of cross-resistance to closely related peptidomimetics, MIC determinations were performed for peptidomimetics 2 and 3 (Figure 1) towards selected isolates. The bacterial suspensions were grown overnight in MHB at 37°C for determination of the population MIC, or individual isolates were grown overnight on non-selective BHI agar at 37°C. […] In all experiments, bacterial cells were suspended in 0.9% saline to give a turbidity of 0.13 at OD546 (approximately 1×10^8 CFU/mL) and diluted in MHB pH 7.4 to a final concentration of 5×10^5 CFU/mL in each well. Polypropylene plates (Nunc 442587) were used to minimize peptide binding, and the incubation time was 18–20 hours at 37°C. […] MIC was found in a minimum of two technical (population MIC) or biological (isolate MIC) replicates as the lowest concentration of the AMP or antibiotic where no visible growth was observed.
(§4) Four isolates, i.e. 2-7, 4-4, 5-6 and 7-3, a representative isolate from four different lineages, were revived from freeze storage. The four isolates were grown in 25–50% blood plasma and in 25–50% heat-inactivated plasma as previously described. Blood plasma was obtained from two different blood donors using sodium citrate as anticoagulant and experiments were performed on at least two independent days. Both donors were fully informed about the study and purpose and a written consent has been received. […] For this the 1∶2 serial dilutions were made in MHB with 50% blood plasma added to give a final concentration of 25% plasma in the wells.

E. coli ATCC 25922 [3] = conditions: wild-type E. coli ATCC 25922
Experimental: as §2, §3, §4

[4] = test system: Escherichia coli ATCC 25922; assay: Continuous selection experiment; type: cell-based
Experimental: Continuous selection of resistance was performed for peptidomimetic 1 (Figure 1) and for the clinically relevant natural antimicrobial peptide, polymyxin B. A bacterial suspension of a single colony of E. coli ATCC 25922 was re-inoculated (10 µl) five times in unsupplemented MHB (990 µl). It was then re-inoculated in MHB supplemented with peptidomimetic 1 (ten lineages) or polymyxin B (ten lineages), and after ten re-inoculations at constant peptidomimetic or polymyxin B concentration, the concentrations were doubled. […] Four lineages grown in MHB with MilliQ water were included as control. Re-inoculations were performed twice a day, but were reduced to once a day when growth was slower as assessed by turbidity of the cultures. The total number of passages (supplemented with peptidomimetic/AMP) was 77 times equivalent to approx. 500 generations. For each increase in concentration the lineages were preserved as freezing stocks. Ten colony isolates were randomly selected from each lineage population at 32×MIC and preserved as freezing stocks.

E. coli ATCC 25922 [5] = assay: Growth rate in MHB supplemented with peptidomimetic 1, wild type; type: cell-based, Escherichia coli; conditions: E. coli ATCC 25922 exposed to 1/16 or 1/32×wt MIC of peptidomimetic 1; p>0.05
Experimental: as §1

SMILES: CC(=O)N[C@@H](CCCCNC(=N)N)C(=O)N(CCC(=O)N[C@@H](CCCCNC(=N)N)C(=O)N(CCC(=O)N[C@@H](CCCCNC(=N)N)C(=O)N(CCC(=O)N[C@@H](CCCCNC(=N)N)C(=O)N(CCC(=O)N[C@@H](CCCCNC(=N)N)C(=O)N(CCC(=O)N[C@@H](CCCCNC(=N)N)C(=O)N(CCC(N)=O)[C@@H](C)c1ccccc1)[C@@H](C)c1ccccc1)[C@@H](C)c1ccccc1)[C@@H](C)c1ccccc1)[C@@H](C)c1ccccc1)[C@@H](C)c1ccccc1 [peptidomimetic 1]
- growth rate ([1]; isolate 2–7, MHB with 4 µg/mL peptidomimetic 1 (1/32×MIC), p<0.01 vs unsupplemented): significantly reduced growth rate
- growth rate ([1]; isolate 2–7, MHB with 8 µg/mL peptidomimetic 1 (1/16×isolate MIC), p<0.01 vs unsupplemented, Bioscreen C, 37°C, 72 h): significantly reduced
- growth rate ([1]; isolate 7-3, MHB with 8 µg/mL peptidomimetic 1 (1/16×isolate MIC), p<0.05 vs unsupplemented, Bioscreen C, 37°C, 72 h): significantly reduced
- Potentiation (ability of plasma to interact synergistically with peptidomimetic 1) ([2]; isolate 2–7): Strong
- MIC in MHB +25% plasma ([2]; isolate 2–7): 0.25 to 2 µg/mL
- Potentiation (ability of plasma to interact synergistically with peptidomimetic 1) ([2]; isolate 4–4): Weak
- MIC in MHB +25% plasma ([2]; isolate 4–4): 1 to 4 µg/mL
- Potentiation (ability of plasma to interact synergistically with peptidomimetic 1) ([2]; isolate 5–6): Weak
- MIC in MHB +25% plasma ([2]; isolate 5–6): 4 to 8 µg/mL
- Potentiation (ability of plasma to interact synergistically with peptidomimetic 1) ([2]; isolate 7–3): Strong
- MIC in MHB +25% plasma ([2]; isolate 7–3): 1 to 2 µg/mL
- Potentiation (ability of plasma to interact synergistically with peptidomimetic 1) (E. coli ATCC 25922 [3]; MHB vs MHB +25% plasma): Weak
- MIC in MHB +25% plasma (E. coli ATCC 25922 [3]; MHB with 25% human blood plasma (sodium citrate)): 2 µg/mL (≈ 0.938 µM)
- lineages that eventually grew at 32×wt MIC ([4]; ten lineages per agent, from 1/16×wt MIC, doubled stepwise, 77 inoculations, approx. 500 generations, 32×wt MIC = 256 µg/mL peptidomimetic 1, 32 µg/mL polymyxin B): All ten
- growth of unexposed control lineages at 4×wt MIC ([4]; two controls per agent, 32 µg/mL peptidomimetic 1 or 4 µg/mL polymyxin B): failed to grow
- growth rate (E. coli ATCC 25922 [5]): reduced growth rate was not seen

— paper PMC3764026, “Adaptive Evolution of Escherichia coli to an α-Peptide/β-Peptoid Peptidomimetic Induces Stable Resistance” (PLoS ONE, 2013)
